# Measurements from PubChem BioAssay AID1195 (EPA DSSTox, 2008).
# Values joined by “and” are separate entries in the source; they are usually repeats but may differ in a detail not shown here. Identical values can stand only once.
# System: human maximum recommended daily dose, FDA database
# Assay: DSSTox (FDAMDD) FDA Maximum (Recommended) Daily Dose Database
# Settings: stronger effect = lower value
# In short: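 MRDD values come from clinical trials with daily oral dosing, usually for 3–12 months, for the average adult, in mg/day converted to mg/kg-bw/day assuming 60 kg. Antineoplastic mg/m2 doses are divided by 37. Activity score maps log10(1/MRDD mmol) onto 1–100.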
# [1] = TherapeuticCategory: anthelmintic
# [2] = TherapeuticCategory: antibacterial
# [3] = TherapeuticCategory: antidepressant
# [4] = TherapeuticCategory: mineralcorticoid
structure (smiles),measurement,setting,value
CN1CCN(CCCN2c3ccccc3Sc3ccc(Cl)cc32)CC1,maximum recommended daily dose (mmol/kg-bw/day),TherapeuticCategory: antiemetic,0.00447
c1ccc([C@H]2CN3CCSC3=N2)cc1,maximum recommended daily dose (mmol/kg-bw/day),[1],0.00408
CC(CCc1ccc(O)cc1)NCCc1ccc(O)c(O)c1 (stereo not given),maximum recommended daily dose (mmol/kg-bw/day),TherapeuticCategory: cardiotonic,0.000133
Cn1cc[nH]c1=S,maximum recommended daily dose (mmol/kg-bw/day),TherapeuticCategory: antihyperthyroid,0.00876
CCOC(=O)CCCCCCCCC(C)c1ccccc1I (stereo not given),maximum recommended daily dose (mmol/kg-bw/day),TherapeuticCategory: diagnostic aid,0.3
CC(C)(N)Cc1ccccc1,maximum recommended daily dose (mmol/kg-bw/day),TherapeuticCategory: anorexic,0.00419
O=P(O)(O)OCC(O)CO (stereo not given),maximum recommended daily dose (mmol/kg-bw/day),TherapeuticCategory: none,0.388
Nc1nc2c(c(=O)[nH]1)N(C=O)C(CNc1ccc(C(=O)NC(CCC(=O)O)C(=O)O)cc1)CN2 (stereo not given),maximum recommended daily dose (mmol/kg-bw/day),"TherapeuticCategory: antidote to folic acid antagonists, antianemic",0.0114
O=C(O)c1[nH]n(-c2ccc(S(=O)(=O)O)cc2)c(=O)c1N=Nc1ccc(S(=O)(=O)O)cc1,maximum recommended daily dose (mmol/kg-bw/day),TherapeuticCategory: dye,0.014
C[N+]12CCC(CC1)C(OC(=O)C(O)(c1ccccc1)c1ccccc1)C2 (stereo not given),maximum recommended daily dose (mmol/kg-bw/day),TherapeuticCategory: anticholinergic,0.00077
C[C@@H]1C[C@H]2[C@@H]3CCC4=CC(=O)C=C[C@]4(C)[C@@]3(Cl)[C@@H](O)C[C@]2(C)[C@@]1(OC(=O)c1ccco1)C(=O)CCl,maximum recommended daily dose (mmol/kg-bw/day),TherapeuticCategory: topical anti inflammatory,2.88e-05
CC(=O)OCC1=C(C(=O)O)N2C(=O)[C@@H](NC(=O)CC#N)[C@H]2SC1,maximum recommended daily dose (mmol/kg-bw/day),[2],0.295
COCCOc1cnc(NS(=O)(=O)c2ccccc2)nc1,maximum recommended daily dose (mmol/kg-bw/day),TherapeuticCategory: antidiabetic,0.108
CC(NC(C)(C)C)C(=O)c1cccc(Cl)c1 (stereo not given),maximum recommended daily dose (mmol/kg-bw/day),[3],0.0313
Clc1cccc(Cl)c1NC1=NCCN1,maximum recommended daily dose (mmol/kg-bw/day),TherapeuticCategory: antihypertensive,0.000174
C1CCC(C(CC2CCCCN2)C2CCCCC2)CC1 (stereo not given),maximum recommended daily dose (mmol/kg-bw/day),"TherapeuticCategory: vasodilator, Ca channel blocker, diuretic",0.018
C[C@]12CCC(=O)C=C1CC[C@@H]1[C@@H]2[C@@H](O)C[C@]2(C=O)[C@@H](C(=O)CO)CC[C@@H]12,maximum recommended daily dose (mmol/kg-bw/day),[4],2.31e-05
CC(C)(CO)[C@@H](O)C(=O)NCCC(=O)O,maximum recommended daily dose (mmol/kg-bw/day),TherapeuticCategory: vitamin,0.000534
O=c1[nH]c(=S)[nH]cc1I,maximum recommended daily dose (mmol/kg-bw/day),TherapeuticCategory: thyroid inhibitor,0.0197
CC(N)C12CC3CC(CC(C3)C1)C2 (stereo not given),maximum recommended daily dose (mmol/kg-bw/day),TherapeuticCategory: antiviral,0.0186
CCOc1ccccc1OCCN[C@H](C)Cc1ccc(OC)c(S(N)(=O)=O)c1,maximum recommended daily dose (mmol/kg-bw/day),TherapeuticCategory: alpha 1A androceptor antagonist,3.26e-05
CN(C)CC/C=C1/c2ccccc2COc2ccccc21,maximum recommended daily dose (mmol/kg-bw/day),[3],0.0179
CCN(CC)S(=O)(=O)c1ccc(C(=O)O)cc1,maximum recommended daily dose (mmol/kg-bw/day),TherapeuticCategory: uricosuric,0.194
CCN(CC)CCOCCOC(=O)C1(c2ccccc2)CCCC1,maximum recommended daily dose (mmol/kg-bw/day),TherapeuticCategory: antitussive,0.006
CCCC(=O)O[C@H]1[C@H](C)O[C@@H](O[C@H]2[C@H](N(C)C)[C@@H](O)[C@H](O[C@H]3[C@@H](CC=O)C[C@@H](C)[C@@H](O)/C=C/C=C/C[C@@H](C)OC(=O)C[C@@H](O)[C@@H]3OC)O[C@@H]2C)C[C@@]1(C)OC(=O)CC,maximum recommended daily dose (mmol/kg-bw/day),[2],0.0242
COC(=O)C1=C(C)NC(C)=C(C(=O)O[C@@H]2CCCN(Cc3ccccc3)C2)[C@@H]1c1cccc([N+](=O)[O-])c1,maximum recommended daily dose (mmol/kg-bw/day),"TherapeuticCategory: antihypertensive, Ca channel blocker",0.000263
C/C=C(/CC[C@@H](C)[C@H]1CC[C@H]2C3=CC[C@H]4[C@H](C)[C@@H](O)CC[C@]4(C)[C@H]3CC[C@]12C)C(C)C,maximum recommended daily dose (mmol/kg-bw/day),TherapeuticCategory: anticholinesteremic,0.234
CN(C)CCC(c1ccc(Br)cc1)c1ccccn1 (stereo not given),maximum recommended daily dose (mmol/kg-bw/day),TherapeuticCategory: antihistaminic,0.00125
C[C@]12CCC(=O)C=C1CC[C@H]1[C@@H]3CC[C@](O)(C(=O)CO)[C@@]3(C)C[C@H](O)[C@@]12F,maximum recommended daily dose (mmol/kg-bw/day),[4],4.39e-06
Nc1c(Br)cc(Br)cc1CNC1CCC(O)CC1 (stereo not given),maximum recommended daily dose (mmol/kg-bw/day),TherapeuticCategory: expectorant,0.00529
N=C(N)c1ccc(N=NNc2ccc(C(=N)N)cc2)cc1 (tested in a mixture with another compound),maximum recommended daily dose (mmol/kg-bw/day),TherapeuticCategory: antiprotozoal,0.0097
Cc1ncsc1CCCl,maximum recommended daily dose (mmol/kg-bw/day),"TherapeuticCategory: sedative, hypnotic, anticonvulsant",0.0396
C[N+](C)(CCOc1ccccc1)Cc1ccccc1,maximum recommended daily dose (mmol/kg-bw/day),[1],0.163 and 0.094
CN(C)CCCN1c2ccccc2Sc2ccc(Cl)cc21,maximum recommended daily dose (mmol/kg-bw/day),"TherapeuticCategory: antiemetic, antipsychotic",0.0524
Cc1onc(-c2c(Cl)cccc2Cl)c1C(=O)N[C@@H]1C(=O)N2[C@@H]1SC(C)(C)[C@@H]2C(=O)O,maximum recommended daily dose (mmol/kg-bw/day),[2],0.0355
